# Values joined by “and” are separate entries in the source; they are usually repeats but may differ in a detail not shown here. Identical values can stand only once. “Also recorded” adds a separate entry of the source.
# Columns and labels:
# [1] = tested on: Treponema hyodysenteriae 78/A strain; assay: therapeutic administration in pigs showing clinical signs of swine dysentery, Test Examples 8-9; assay type: in vivo; settings: for No. of pathogen (in feces) / Condition of feces: individual pig
# Experimental: This test was conducted under the conditions of so-called therapeutic administration. […] The method of infection was the same as in Test Example 5. […] Simultaneously with showing of the signs, the pigs were provided with a feed containing 50 ppm of lankacidin C. […] After 2 days, the viable count for the pathogen in feces was below the detection limit (10^2 CFU/g).
# The condition of feces was rated at one of the following four classes:
# .circle. normal; loose; diarrheal; .circleincircle. mucous and bloody
# count is below the detection limit (10^2 CFU/g).
# The symbol * indicates those days on which the feed containing 50 ppm of
# lankacidin C was given.
# Lankacidins were tested for therapeutic effects in swine dysentery under therapeutic conditions in the same manner as in Test Example 8. The effects were judged based on the condition of feces.
# The condition of feces was rated at one of the following four classes;
# The symbol * indicates the days on which the feed containing 50 ppm of th
# [2] = tested on: Treponema hyodysenteriae 78/A strain; assay: efficacy against swine dysentery under experimental infection conditions in pigs (drug in feed), Test Examples 5-7; assay type: in vivo, Landrace pigs; settings: for Number of days on which diarrhea was observed / Number of days on which mucous bloody stool was observed / Number of pigs showing signs of infection/number of pigs used: 21-day test period; for Body weight gain / Feed conversion / Feed intake: 21 day period; for Body weight gain / Feed conversion / Feed intake / Body weight at the time of completion of test: mean per head; for effect against swine dysentery (in words): pig, in vivo
# Experimental: Lankacidin C was tested for efficacy against swine dysentery under experimental infection conditions. Thus, twelve 6-week-old Landrace pigs (4 per group) were used. The test drug was admixed to a concentration of 100 ppm with the domestically formulated starter feed for young pigs without antibiotics. The animals were provided with the ration ad libitum. Infection of the pigs was effected by direct intragastrical administration to the SPF pigs of an inoculum prepared by preliminary anaerobic cultivation of the Treponema hyodysenteriae 78/A strain on a 5% horse blood added agar plate, mashing together with the culture medium and admixing with 5% mucin added phosphate buffer. Colonic contents and mucosa were collected from pigs which developed typical signs of swine dysentery, and diluted two-fold with 5% mucin added phosphate buffer. The dilution was used as the final inoculum, and 100 ml of the dilution was directly injected into the stomach of test pigs at the age of 7 weeks (fasted for 24 hours before infection). The pigs were fed for 21 days following infection.
# The data are each the mean value per head for the 21day period from
# infection to autopsy. Different alphabetic letters on the same line
# indicate that there is a significant difference between the data to which
# they are attached (P <0.05).
# Lankacidin C was tested at concentrations in feed of 100 ppm and lower by the same method as in Test Example 5, with carbadox, a commonly used anti-swine-dysentery agent, for comparison.
# The anti-swine-dysentery effects of 10 ppm each of lankacidin A and lankacidin C 14-propionate were examined by the procedure of Test Example 6.
# [3] = 50 ppm in feed, autopsy 15 days after manifestation of signs
# [4] = Table 9, 50 ppm in feed, day 0 after manifestation of signs
smiles,measurement,setting,value
"CC(=O)C(=O)NC1C=C(C)C=CC(O)CC=C(C)C=CC(O)CC2OC(=O)C1(C)C(=O)C2C (centres unmarked) [Lankacidin C, lankacidin C]",therapeutic effect in swine dysentery (in words),[1]; 50 ppm in feed,therapeutically effective
same,viable count for the pathogen in feces,"[1]; 50 ppm in feed, after 2 days",< 10^2 CFU/g
same,colonic lesions (autopsy),[1]; [3],negative
same,pathogen at autopsy (in words),[1]; [3],without the pathogen being detected
same,colonic lesions (autopsy),"[1]; 50 ppm in feed, autopsy 15 days after manifestation of signs, listed as lankacidin C",no colonic lesions
same,No. of pathogen (in feces),"[1]; 50 ppm in feed, day 0",8.0 log/g and 6.0 log/g and 7.1 log/g and 6.8 log/g
same,No. of pathogen (in feces),"[1]; 50 ppm in feed, day 1",4.3 log/g and 2.3 log/g and 4.4 log/g and 2.0 log/g
same,mucous bloody diarrhea / passage (in words),"[1]; 50 ppm in feed, day following the administration",mucous bloody diarrhea was no more observed on the day following the administration but the passage was loose or normal
same,Condition of feces,"[1]; Table 8, 50 ppm in feed days 0-6, day 7",.circle.
same,Condition of feces,"[1]; Table 8, 50 ppm in feed days 0-6, day 8",.circle.
same,Condition of feces,"[1]; Table 8, 50 ppm in feed days 0-6, day 9",.circle.
same,Condition of feces,"[1]; Table 8, 50 ppm in feed days 0-6, day 10",.circle.
same,Condition of feces,"[1]; Table 8, 50 ppm in feed days 0-6, day 11",.circle.
same,Condition of feces,"[1]; Table 8, 50 ppm in feed days 0-6, day 12",.circle.
same,Condition of feces,"[1]; Table 8, 50 ppm in feed days 0-6, day 13",.circle.
same,Condition of feces,"[1]; Table 8, 50 ppm in feed days 0-6, day 14",.circle.
same,Condition of feces,"[1]; Table 8, 50 ppm in feed days 0-6, day 15",.circle.
same,Condition of feces,"[1]; Table 8, 50 ppm in feed, day 0 after manifestation of signs",.circleincircle.
same,Condition of feces,"[1]; Table 8, 50 ppm in feed, day 1",.circle.
same,Condition of feces,"[1]; Table 8, 50 ppm in feed, day 2",.circle.
same,Condition of feces,"[1]; Table 8, 50 ppm in feed, day 3",.circle.
same,Condition of feces,"[1]; Table 8, 50 ppm in feed, day 4",.circle.
same,Condition of feces,"[1]; Table 8, 50 ppm in feed, day 5",.circle.
same,Condition of feces,"[1]; Table 8, 50 ppm in feed, day 6",.circle.
same,Condition of feces,[1]; [4],.circleincircle.
same,Condition of feces,"[1]; Table 9, 50 ppm in feed, day 1",.circle.
same,Condition of feces,"[1]; Table 9, 50 ppm in feed, day 2",.circle.
same,Condition of feces,"[1]; Table 9, 50 ppm in feed, day 3",.circle.
same,Condition of feces,"[1]; Table 9, 50 ppm in feed, day 4",.circle.
same,Condition of feces,"[1]; Table 9, 50 ppm in feed, day 5",.circle.
same,"Number of pigs from which the pathogen was detected, in colonic mucosa",[2]; 10 ppm in feed,0
same,"Number of pigs from which the pathogen was detected, in feces",[2]; 10 ppm in feed,0
same,Number of pigs showing colonic lesions,[2]; 10 ppm in feed,0
same,Number of days on which diarrhea was observed,[2]; 10 ppm in feed,0 days
same,Number of days on which mucous bloody stool was observed,[2]; 10 ppm in feed,0 days
same,Number of pigs showing signs of infection/number of pigs used,[2]; 10 ppm in feed,0/4
same,Body weight gain,[2]; 10 ppm in feed,484 grams/day
same,Feed conversion,[2]; 10 ppm in feed,1.81
same,Feed intake,[2]; 10 ppm in feed,18.4 kg
same,Body weight at the time of completion of test,[2]; 10 ppm in feed,20.7 kg
same,"Number of pigs from which the pathogen was detected, in colonic mucosa",[2]; 50 ppm in feed,0
same,"Number of pigs from which the pathogen was detected, in feces",[2]; 50 ppm in feed,0
same,Number of pigs showing colonic lesions,[2]; 50 ppm in feed,0
same,Number of days on which diarrhea was observed,[2]; 50 ppm in feed,0 days
same,Number of days on which mucous bloody stool was observed,[2]; 50 ppm in feed,0 days
same,Number of pigs showing signs of infection/number of pigs used,[2]; 50 ppm in feed,0/4
same,Body weight gain,[2]; 50 ppm in feed,673 grams/day
same,Feed conversion,[2]; 50 ppm in feed,1.79
same,Feed intake,[2]; 50 ppm in feed,25.3 kg
same,Body weight at the time of completion of test,[2]; 50 ppm in feed,25.3 kg
same,"Number of pigs from which the pathogen was detected, in colonic mucosa",[2]; 100 ppm in feed,0
same,"Number of pigs from which the pathogen was detected, in feces",[2]; 100 ppm in feed,0
same,Number of pigs showing colonic lesions,[2]; 100 ppm in feed,0
same,Number of days on which diarrhea was observed,[2]; 100 ppm in feed,0 days
same,Number of days on which mucous bloody stool was observed,[2]; 100 ppm in feed,0 days
same,Number of pigs showing signs of infection/number of pigs used,[2]; 100 ppm in feed,0/4
same,Body weight gain,[2]; 100 ppm in feed,708 grams/day and 689 grams/day
same,Feed conversion,[2]; 100 ppm in feed,1.85 and 1.77
same,Feed intake,[2]; 100 ppm in feed,27.5 kg and 25.6 kg
same,Body weight at the time of completion of test,[2]; 100 ppm in feed,28.5 kg and 25.5 kg
same,effect against swine dysentery (in words),[2],excellent effect against swine dysentery; also recorded: more excellent anti-swine-dysentery agent than carbadox
"CC(=O)OC1C=CC(C)=CCC(O)C=CC(C)=CC(NC(=O)C(C)=O)C2(C)C(=O)OC(C1)C(C)C2=O (centres unmarked) [Lankacidin A, lankacidin A]",therapeutic effect in swine dysentery (in words),[1]; 50 ppm in feed,therapeutically effective
same,Condition of feces,"[1]; Table 9, 50 ppm in feed days 0-6, day 7",.circle.
same,Condition of feces,"[1]; Table 9, 50 ppm in feed days 0-6, day 8",.circle.
same,Condition of feces,"[1]; Table 9, 50 ppm in feed days 0-6, day 9",.circle.
same,Condition of feces,"[1]; Table 9, 50 ppm in feed days 0-6, day 10",.circle.
same,Condition of feces,"[1]; Table 9, 50 ppm in feed days 0-6, day 11",.circle.
same,Condition of feces,"[1]; Table 9, 50 ppm in feed days 0-6, day 12",.circle.
same,Condition of feces,"[1]; Table 9, 50 ppm in feed days 0-6, day 13",.circle.
same,Condition of feces,"[1]; Table 9, 50 ppm in feed days 0-6, day 14",.circle.
same,Condition of feces,"[1]; Table 9, 50 ppm in feed days 0-6, day 15",.circle.
same,Condition of feces,"[1]; Table 9, 50 ppm in feed days 0-6, day 16",.circle.
same,Condition of feces,"[1]; Table 9, 50 ppm in feed days 0-6, day 17",.circle.
same,Condition of feces,"[1]; Table 9, 50 ppm in feed days 0-6, day 18",.circle.
same,Condition of feces,"[1]; Table 9, 50 ppm in feed days 0-6, day 19",.circle.
same,Condition of feces,"[1]; Table 9, 50 ppm in feed days 0-6, day 20",.circle.
same,Condition of feces,"[1]; Table 9, 50 ppm in feed days 0-6, day 21",.circle.
same,Condition of feces,[1]; [4],.circleincircle.
same,Condition of feces,"[1]; Table 9, 50 ppm in feed, day 1",.circle.
same,Condition of feces,"[1]; Table 9, 50 ppm in feed, day 2",.circle.
same,Condition of feces,"[1]; Table 9, 50 ppm in feed, day 3",.circle.
same,Condition of feces,"[1]; Table 9, 50 ppm in feed, day 4",.circle.
same,Condition of feces,"[1]; Table 9, 50 ppm in feed, day 5",.circle.
same,Condition of feces,"[1]; Table 9, 50 ppm in feed, day 6",.circle.
same,"Number of pigs from which the pathogen was detected, in colonic mucosa",[2]; 10 ppm in feed,0
same,"Number of pigs from which the pathogen was detected, in feces",[2]; 10 ppm in feed,0
same,Number of pigs showing colonic lesions,[2]; 10 ppm in feed,0
same,Number of days on which diarrhea was observed,[2]; 10 ppm in feed,0 days
same,Number of days on which mucous bloody stool was observed,[2]; 10 ppm in feed,0 days
same,Number of pigs showing signs of infection/number of pigs used,[2]; 10 ppm in feed,0/4
same,Body weight gain,[2]; 10 ppm in feed,567 grams/day
same,Feed conversion,[2]; 10 ppm in feed,1.76
same,Feed intake,[2]; 10 ppm in feed,21.0 kg
same,Body weight at the time of completion of test,[2]; 10 ppm in feed,22.9 kg
same,effect against swine dysentery (in words),[2],distinctly effective against swine dysentery

# Source: patent US4425356A, “Lankacidin derivatives used in swine husbandry” (Takeda Chemical Industries, Ltd., priority 1980, dated 1984)
